The results in this text go back to ChEMBL document CHEMBL1137989, “Synthesis, electrochemistry, and bioactivity of the cyanobacterial calothrixins and related quinones” (J Med Chem, 2004).

The term EC50 denotes the concentration at which the effect is half-maximal. Read a high EC50 as weaker potency.

The test system of the assay is HeLa. In words: Cytotoxicity against HeLa cell lines. The format is functional, cell-based. Conditions: Homo sapiens.
`O=C1c2c[n+]([O-])c3ccccc3c2C(=O)c2[nH]c3ccccc3c21` [CALOTHRIXIN A] returned an EC50 of 120 nM.

`COC(=O)c1ccccc1C(=O)c1cn(OC)c2ccccc12`: the EC50 was over 50000 nM.

In turn, `COC(=O)c1ccccc1C(=O)c1c[nH]c2ccccc12` showed an EC50 of over 50000 nM.

`CC1=CC(=O)c2ccccc2C1=O` [MENADIONE] showed an EC50 of 3700 nM.

`O=C1c2ccccc2C(=O)c2c1[nH]c1ccccc21` [BENZOCARBAZOLEDIONE] gave a concentration for a half-maximal effect (EC50) of 430 nM.

The compound `COCn1c2c(c3ccccc31)C(=O)c1cnc3ccccc3c1C2=O` showed an EC50 of 420 nM.

With `O=C1c2ccncc2C(=O)c2c1[nH]c1ccccc21`, the EC50 is 150 nM.

Consider `O=C1c2[nH]c3ccccc3c2C(=O)c2cnc3ccccc3c21` [CALOTHRIXIN B], for which the EC50 stood at 240 nM.

In turn, `COn1c2c(c3ccccc31)C(=O)c1ccccc1C2=O` had an EC50 of 1600 nM.
